Reference: patent publication US20060135461A1, “Reduction of hair growth” (priority 2004, published 2006)
Structures can show the parent of a compound that is named as a salt. Where two headings read alike, the source gives them in different places.

Tests used:
flank organ hair growth = assay: Golden Syrian Hamster Assay; type: in vivo; settings: for % Inhibition: hair mass vs vehicle side; for Treated Side: hair mass
From the text: Golden Syrian Hamster Assay
Male intact Golden Syrian hamsters are considered acceptable models for human beard hair growth in that they display oval shaped flank organs, one on each side, each about 8 mm. in major diameter. These organs produce fine light colored hair typical of the animal pelage found on the body. In response to androgens the flank organs produce dark coarse hair similar to male human beard hair. To evaluate the effectiveness of a composition, the flank organs of each of a group of hamsters are depilated by applying a thioglycolate-based chemical depilatory (Surgex) and/or shaved. To one organ of each animal 10 μl of vehicle alone once a day is applied, while to the other organ of each animal an equal amount of vehicle containing a survivin inhibitor. After thirteen applications (one application per day for five days a week), the flank organs are shaved and the amount of recovered hair (hair mass) from each is weighed. For certain experiments, where indicated, the treatment period was for less than 13 applications. The reduced treatment period allowed for determination of onset in activity. Percent-reduction of hair growth is calculated by subtracting the hair mass (mg) value of the test compound treated side from the hair mass value of the vehicle treated side; the delta value obtained is then divided by the hair mass value of the vehicle treated side, and the resultant number is multiplied by 100. Visual evaluations comparing hair regrowth between the drug treated and the vehicle control site were made generally on day-8, day-15 and on day-19. These observations provide an identification of onset in activity (and thus efficacy).

human hair follicles = assay: Human Hair Follicle Growth Assay; type: cell-based; settings: for Length Increase (mm): follicle length day 6 minus day 0
From the text: Human Hair Follicle Growth Assay
Human skin was obtained from a plastic surgeon as a by-product of face-lift procedures. The skin samples generally consisted of haired and non-haired regions taken from the area of the face. Immediately after removal, the skin was placed in Williams E medium containing antibiotics, and kept refrigerated. The Williams E medium was commercially obtained (Life Technologies, Gaithersburg, Md.), and has been formulated with essential nutrients for maintaining viability of hair follicle in an in-vitro environment.
Human hair follicles in growth phase (anagen) were isolated from face-lift tissue under a dissecting scope using a scalpel and watchmakers forceps. The skin was sliced into thin strips exposing 2-3 rows of follicles that could readily be dissected. Follicles were placed into 0.5 ml Williams E medium supplemented with 2 mM L-glutamine, 10 ug/ml insulin, 10 ng/ml hydrocortisone, 100 units penicillin, 0.1 mg/ml streptomycin and 0.25 μg/ml amphotericin B. The follicles were incubated in 24 well plates (1 follicle/well) at 37° C. in an atmosphere of 5% CO2 and 95% air. Hair follicle images were taken in the 24-well plates under the dissecting scope under a power of 20×. Hair follicle lengths were measured on day 0 (day follicles were placed in culture) and again on day 6-7. In this system follicles appear to fully differentiate into a hair fiber and increase in length at a rate similar to the human, in vivo, rate of about 0.3 mm/day. For testing survivin inhibitors, the inhibitor was included in the culture medium from time 0 and remained in the medium throughout the course of the experiment.

survivin = assay: Determination of Hair Follicle Survivin Protein Content by ELISA; type: cell-based, human; settings: for Survivin Protein: human hair follicles in vitro, normalized to total protein; for Inhibition: survivin protein level
Protocol: Determination of Hair Follicle Survivin Protein Content by ELISA (Enzyme-Linked Immunosorbent Assay)
For protein extraction, 5-micron cryosections of the hair follicles were collected into the centrifuge tubes, followed by short time incubation with the lysis buffer (BD Bioscience; CA; Cat #K 1848-1). The solutions were centrifuged for 30 minutes at 14,000×g at 4° C., and the supernatants were frozen and stored at −80° C. For quantification of survivin protein, a commercially available ELISA kit was used, following the manufacturer's instructions (Assay Design Inc; Michigan; Cat # 900-111). Total protein concentration in the extracts was determined by using the bicinchoninic acid (BCA) protein assay (Pierce Chemical Company, Rockford; Cat #23225). The readings of optical density were performed, using EL340 Bio Kinetics microplate reader (Bio-Tek Instruments Inc). The survivin levels (in pg/ml) were normalized against the total amount of protein (in ug/ml) extracted from hair follicles.

[1] = 5% topical, vehicle 20% propylene glycol in ethanol
[2] = 10% topical, vehicle 10% DMSO in ethanol, water, emerest, and propylene glycol

CC(Cc1ccc(OC(=O)CN(C)C)c(OC(=O)CN(C)C)c1)C(C)Cc1ccc(OC(=O)CN(C)C)c(OC(=O)CN(C)C)c1 [G4N, meso-1,4-bis[(3,4-dimethylaminoacetoxy)phenyl]-(2R,3S)-dimethylbutane hydrochloride salt]
% Inhibition (flank organ hair growth; [1]): 48 ± 6%
Treated Side (flank organ hair growth; [1]): 1.17 ± 0.2 mg
Length Increase (mm) (human hair follicles; G4N 20 uM in culture medium): 1.19 ± 0.11 mm
Length Increase (mm) (human hair follicles; G4N 50 uM in culture medium): 0.61 ± 0.14 mm
inhibition at 20 µM (human hair follicles; Homo sapiens, 144 h, 20 uM, hair growth vs control, day 6, read-out: % Inhibition): 30%
inhibition at 50 µM (human hair follicles; Homo sapiens, 144 h, 50 uM, hair growth vs control, day 6): 64%

CC[C@H](CO)Nc1nc(NCc2ccccc2)c2ncn(C(C)C)c2n1 [Roscovitine, (R)-2-[[9-(1-methylethyl)-6-[(phenylmethyl)amino]-9H-purin-2-yl]amino]-1-butanol]
Survivin Protein (survivin; 15 uM Roscovitine): 0.03 pg/mg
Survivin Protein (survivin; 20 uM Roscovitine): 0.007 pg/mg
Inhibition (survivin; 15 uM Roscovitine vs control): 62%
Inhibition (survivin; 20 uM Roscovitine vs control): 95%
Length Increase in mm (human hair follicles; 10 uM Roscovitine in culture medium): 0.97 ± 0.13 mm
Length Increase in mm (human hair follicles; 15 uM Roscovitine in culture medium): 0.5 ± 0.1 mm
Length Increase in mm (human hair follicles; 20 uM Roscovitine in culture medium): 0.05 ± 0.05 mm
inhibition at 10 µM (human hair follicles; Homo sapiens, 10 uM Roscovitine vs control): 42%
inhibition at 15 µM (human hair follicles; Homo sapiens, 15 uM Roscovitine vs control): 60%
inhibition at 20 µM (human hair follicles; Homo sapiens, 20 uM Roscovitine vs control, read-out: Hair Growth Inhibition): 80%

COc1cc([C@H]2Oc3cc([C@H]4Oc5cc(O)cc(O)c5C(=O)[C@@H]4O)ccc3O[C@@H]2CO)ccc1O [Silibinin, (2R,3R)-2-[(2R,3R)-2,3-dihydro-3-(4-hydroxy-3-methoxyphenyl)-2-(hydroxymethyl)-1,4-benzodioxin-6-yl]-2,3-dihydro-3,5,7-trihydroxy-4H-1-benzopyran-4-one]
% Inhibition (flank organ hair growth; [2]): 62.1 + 5.5%
Treated Side (flank organ hair growth; [2]): 0.77 ± .14 mg
